System: H3K4me3 at known PRDM9 binding loci and control TSS loci
Experiment: ChIP-qPCR of H3K4me3 in PRDM9-transfected HEK293T cells
Format: cell-based, human
Settings: for dCq (IP-Input): H3K4me3 antibody, Replicate 1; for 2^-dCq (H3K4me3 ChIP-qPCR, IP relative to H3) / H3K4me3 ChIP-qPCR 2^-dCq (IP-Input): Replicate 2; for 2^-dCq (H3K4me3 ChIP-qPCR, IP relative to H3): Antibody H3K4me3; for H3K4me3 ChIP-qPCR 2^-dCq (IP-Input): chr2:40281930-40282015 Intragenic (SLC8A1-AS1), Figure 7 C, H3K4me3 antibody relative to H3
Protocol: ChIP-qPCR assays were then conducted on known PRDM9 binding loci[26]. Ectopic expression of PRDM9^WT increased trimethylation of H3K4 (H3K4me3) at previously described PRDM9-specific intragenic and intergenic regions[26] (Fig. 7; Supplementary Fig. 12). […] The observed increases in H3K4me3 levels at intragenic and intergenic regions are therefore due directly to PRDM9 PR domain-dependent methylation activity, rather than through recruitment of other H3K4 methyltransferases or other indirect mechanisms.
ChIP qPCR analyses of H3K4me3 methylation levels of known PRDM9-bound loci and control loci. […] Concentrations used (µM) are indicated below each plot. (a–d) represent reported loci of PRDM9 methylation; (e, f) are transcriptional start sites (TSSs) which are not known loci of PRDM9 methylation. Data are normalized to total H3 and are presented as the mean ± upper and lower limits from two replicates. Representative plots of two independent experiments are shown in this figure. The coordinates and the genomic features associated with the assayed loci are indicated above each plot. Left Tailed Student's t-tests were performed by comparing DMSO (0 µM) treated cells to compound treated cells that have been transfected with the same plasmids. *p-value < 0.05 and **p-value < 0.01. Note that here we show a representative of two independent experiments (mean ± s.d of technical replicates) for our ChIP-qPCR experiments. Data obtained using this technique are inherently noisy due to stochastic differences in gene activity/histone positioning. Data are thus typically presented as representative rather than averaged. Source data are provided as a Source Data file.
HEK293T cells were transfected with 37.5 μg empty pcDNA3.1(+) vector (Invitrogen), or the same vector expressing either wild-type PRDM9 (PRDM9^WT) or a catalytically dead PRDM9 mutant (PRDM9^Mut) and 75 μL of Lipofectamine 2000 (Invitrogen) in 6 mL of Opti-MEM (GIBCO) for 48 h. […] ChIP assays were then performed as previously described. Briefly, cells were fixed in 1% formaldehyde and the fixation reaction was quenched in a final concentration of 0.1 M glycine. Cell pellets were first lysed in LB1 (50 mM HEPES-KOH pH 7.5, 140 mM NaCl, 1 mM EDTA, 10% Glycerol, 0.5% Igepal, 0.25% TritonX), washed once in LB2 Buffer (10 mM Tris-HCl pH 8, 200 mM NaCl, 1 mM EDTA, 0.5 mM EGTA) and finally sonicated in LB3 buffer (10 mM Tris-HCl pH 8, 100 mM NaCl, 1 mM EDTA, 0.5 mM EGTA, 0.1% Sodium deoxycholate, 0.5% N-laurosylsarcosine) using a bioruptor (Diagenode). Thereafter, 50 μg of chromatin was subjected to ChIP using the following antibodies purchased from Abcam: α-H3K4me3 (1:200, ab8580, lot:GR3207339-1) and α-H3 (1:250, ab1791, lot:GR300978-4). After extensive washing in RIPA wash buffer (50 mM HEPES-KOH pH 7.6, 100 mM LiCl, 1 mM EDTA, 1% Igepal, 0.7% Sodium Deoxycholate), DNA was eluted from beads. The eluted DNA was treated with RNase A and Proteinase K and purified using the QIAGEN PCR purification kit. qPCR was then carried out targeting the indicated loci (Supplementary Table 3). Upper and lower limits were defined by |2^−(dCq±s) − 2^−(∆Cq)|, where s = √((Standard deviation of Input Cq)^2 + (Standard deviation of Target Cq)^2). […]
formation. ChIP qPCR analyses of H3K4me3 methylation levels at known PRDM9-bound and control loci. Cells transfected with empty vector (negative control) or vectors overexpressing either wild-type PRDM9 (PRDM9 WT) or catalytically dead PRDM9 (PRDM9 MUT) were […]
Panels a-d represent reported loci of […]
(1 picture or pasted object on this page, not shown here)
PRDM9 methylation; e-f are TSSs which are not known sites of PRDM9 methylation. Data are normalized to total H3 and are presented as the mean ± upper and lower limits from two […]

**Q.** `COc1cc(OC)cc(-c2noc(N3CCN(C)C4(CCN(c5ccnc(C)c5)CC4)C3)n2)c1` [MRK-740] was tested. Which “dCq (IP-Input)” value (chr8:49932778-49932856 (Intergenic), PRDM9) did it give?
**A.** Its value is -2.203.

**Q.** What about the “dCq (IP-Input)” value (chr8:49932778-49932856 (Intergenic), PRDM9_Cat.Dead) of the same compound?
**A.** The value was 1.033.

**Q.** And the “dCq (IP-Input)” value (chr12:6643945-6644023 TSS (GAPDH), Empty Vector)?
**A.** Its value is -5.504.

**Q.** And the “dCq (IP-Input)” value (chr12:6643945-6644023 TSS (GAPDH), PRDM9)?
**A.** Its value is -5.409.

**Q.** And the “dCq (IP-Input)” value (chr12:6643945-6644023 TSS (GAPDH), PRDM9_Cat.Dead)?
**A.** The value was -6.466.

**Q.** What about the “dCq (IP-Input)” value (chr19:8510167-8510261 TSS (HNRNPM), Empty Vector) of the same compound?
**A.** The value was -5.657.

**Q.** And the “dCq (IP-Input)” value (chr19:8510167-8510261 TSS (HNRNPM), PRDM9)?
**A.** Its value is -5.412.

**Q.** And the “dCq (IP-Input)” value (chr19:8510167-8510261 TSS (HNRNPM), PRDM9_Cat.Dead)?
**A.** Its value is -6.463.

**Q.** What about the “H3K4me3 levels at tested TSS sites (ChIP-qPCR, in words)” value (HEK293T transfected with wild-type PRDM9, 48 h) of the same compound?
**A.** The value was “No significant reduction in H3K4me3 levels”.

**Q.** And the “H3K4me3 levels at PRDM9-dependent intragenic and intergenic loci (ChIP-qPCR, in words)” value (HEK293T transfected with wild-type PRDM9, 48 h, various concentrations)?
**A.** The value was “abrogated in a concentration-dependent manner in three out of four PRDM9-dependent loci”.

**Q.** And the “2^-dCq (H3K4me3 ChIP-qPCR, IP relative to H3)” value (Figure 7 D chr3:165514798-165514911 Intragenic (BCHE), Plasmid Empty Vector, Drug Conc. 2.5)?
**A.** Its value is 0.6821.

**Q.** What about the “2^-dCq (H3K4me3 ChIP-qPCR, IP relative to H3)” value (Figure 7 D chr3:165514798-165514911 Intragenic (BCHE), Plasmid Empty Vector, Drug Conc. 5) of the same compound?
**A.** Its value is 0.9187.

**Q.** And the “2^-dCq (H3K4me3 ChIP-qPCR, IP relative to H3)” value (Figure 7 D chr3:165514798-165514911 Intragenic (BCHE), Plasmid Empty Vector, Drug Conc. 10)?
**A.** Its value is 0.5228.

**Q.** And the “2^-dCq (H3K4me3 ChIP-qPCR, IP relative to H3)” value (Figure 7 D chr3:165514798-165514911 Intragenic (BCHE), Plasmid PRDM9WT, Drug Conc. 2.5)?
**A.** The value was 6.769.

**Q.** What about the “2^-dCq (H3K4me3 ChIP-qPCR, IP relative to H3)” value (Figure 7 D chr3:165514798-165514911 Intragenic (BCHE), Plasmid PRDM9WT, Drug Conc. 5) of the same compound?
**A.** The value was 7.878.

**Q.** And the “2^-dCq (H3K4me3 ChIP-qPCR, IP relative to H3)” value (Figure 7 D chr3:165514798-165514911 Intragenic (BCHE), Plasmid PRDM9WT, Drug Conc. 10)?
**A.** Its value is 3.468.

**Q.** What about the “2^-dCq (H3K4me3 ChIP-qPCR, IP relative to H3)” value (Figure 7 E chr12:6643945-6644023 TSS (GAPDH), Plasmid Empty Vector, Drug Conc. 2.5) of the same compound?
**A.** Its value is 49.5681.

**Q.** What about the “2^-dCq (H3K4me3 ChIP-qPCR, IP relative to H3)” value (Figure 7 E chr12:6643945-6644023 TSS (GAPDH), Plasmid Empty Vector, Drug Conc. 5) of the same compound?
**A.** The value was 83.0384.

**Q.** And the “2^-dCq (H3K4me3 ChIP-qPCR, IP relative to H3)” value (Figure 7 E chr12:6643945-6644023 TSS (GAPDH), Plasmid Empty Vector, Drug Conc. 10)?
**A.** Its value is 114.864.

**Q.** And the “2^-dCq (H3K4me3 ChIP-qPCR, IP relative to H3)” value (Figure 7 E chr12:6643945-6644023 TSS (GAPDH), Plasmid PRDM9WT, Drug Conc. 2.5)?
**A.** Its value is 64.1133.

**Q.** And the “2^-dCq (H3K4me3 ChIP-qPCR, IP relative to H3)” value (Figure 7 E chr12:6643945-6644023 TSS (GAPDH), Plasmid PRDM9WT, Drug Conc. 5)?
**A.** The value was 130.72.

**Q.** What about the “2^-dCq (H3K4me3 ChIP-qPCR, IP relative to H3)” value (Figure 7 E chr12:6643945-6644023 TSS (GAPDH), Plasmid PRDM9WT, Drug Conc. 10) of the same compound?
**A.** Its value is 21.1787.

**Q.** What about the “2^-dCq (H3K4me3 ChIP-qPCR, IP relative to H3)” value (Figure 7 F chr19:8510167-8510261 TSS (HNRNPM), Plasmid Empty Vector, Drug Conc. 2.5) of the same compound?
**A.** The value was 123.77.

**Q.** And the “2^-dCq (H3K4me3 ChIP-qPCR, IP relative to H3)” value (Figure 7 F chr19:8510167-8510261 TSS (HNRNPM), Plasmid Empty Vector, Drug Conc. 5)?
**A.** Its value is 107.435.

**Q.** And the “2^-dCq (H3K4me3 ChIP-qPCR, IP relative to H3)” value (Figure 7 F chr19:8510167-8510261 TSS (HNRNPM), Plasmid Empty Vector, Drug Conc. 10)?
**A.** The value was 99.1079.

**Q.** And the “2^-dCq (H3K4me3 ChIP-qPCR, IP relative to H3)” value (Figure 7 F chr19:8510167-8510261 TSS (HNRNPM), Plasmid PRDM9WT, Drug Conc. 2.5)?
**A.** The value was 68.6717.

**Q.** And the “2^-dCq (H3K4me3 ChIP-qPCR, IP relative to H3)” value (Figure 7 F chr19:8510167-8510261 TSS (HNRNPM), Plasmid PRDM9WT, Drug Conc. 5)?
**A.** Its value is 143.684.

**Q.** And the “2^-dCq (H3K4me3 ChIP-qPCR, IP relative to H3)” value (Figure 7 F chr19:8510167-8510261 TSS (HNRNPM), Plasmid PRDM9WT, Drug Conc. 10)?
**A.** The value was 36.5414.

**Q.** And the “H3K4me3 ChIP-qPCR 2^-dCq (IP-Input)” value (Empty Vector, Drug Conc. 2.5)?
**A.** The value was 0.6992.

**Q.** And the “H3K4me3 ChIP-qPCR 2^-dCq (IP-Input)” value (Empty Vector, Drug Conc. 5)?
**A.** Its value is 0.9795.

**Q.** And the “H3K4me3 ChIP-qPCR 2^-dCq (IP-Input)” value (Empty Vector, Drug Conc. 10)?
**A.** The value was 0.6781.

**Q.** What about the “H3K4me3 ChIP-qPCR 2^-dCq (IP-Input)” value (PRDM9WT, Drug Conc. 2.5) of the same compound?
**A.** Its value is 6.293.

**Q.** What about the “H3K4me3 ChIP-qPCR 2^-dCq (IP-Input)” value (PRDM9WT, Drug Conc. 5) of the same compound?
**A.** Its value is 5.934.
